# “Also recorded” adds a separate entry of the source.
# Tested on: BALB/c splenocytes (responder cells) and γ-irradiated C57BL/6J splenocytes (stimulator cells)
# Assay: Mixed lymphocyte reaction (MLR), [3H]-thymidine incorporation
# Type: cell-based, mice
# Procedure: The MLR was performed in 96-well tissue culture plates, with each well containing 4×10^5 BALB/c splenocytes (responder cells) and 4×10^5 γ-irradiated (3000R) C57BL/6J splenocytes (stimulator cells) in 200 μl RPMI/FCS-10% medium and with various concentrations of Caerulomycin A (1-0.0125 μg/ml) and Cyclosporin A (0.0125-10 μg/ml). The control cultures consisting of BALB/c splenocytes in medium alone, γ-irradiated C57BL/6J splenocytes and BALB/c splenocytes+γ-irradiated C57BL/6J splenocytes were also kept. After 4 days, the cultures were pulsed with 1 μCi of [^3H]-thymidine and harvested 16 h later by a Skatron cell harvester. Radioactivity incorporated was measured by liquid scintillation counting and data expressed as mean counts per minute (cpm).
# Examples establishing the role of Caerulomycin A [isolated from a novel species of Actinoalloteichus] in inducing immunosuppression based on the following: • Splenocytes of BALB/c mice were stimulated with either ConA (1 μg/ml and 2 μg/ml) or LPS (5 μg/ml and 10 μg/ml) and were cultured with different concentrations of Caerulomycin A (0.0003-0.1 μg/ml). […] Radioactivity incorporated was measured by liquid scintillation counting. • Antigen ovalbumin (100 μg/ml) emulsified in Freund's complete adjuvant was injected in a group consisting of 5 BALB/c mice. […] Radioactivity incorporated was measured by liquid scintillation. […]
smiles,measurement,setting,value
"COc1cc(/C=N/O)nc(-c2ccccn2)c1 [Caerulomycin A, (E)-4-methoxy-2,2′-bipyridine-6-carbaldehyde oxime]",MLR reaction (proliferation),"Caerulomycin A 1-0.0125 μg/ml, Cyclosporin A 0.0125-10 μg/ml, 4 days",dose dependent inhibition; also recorded: substantially reduced the MLR reaction
same,potency in inhibiting MLR relative to Cyclosporin A (CsA),similar amount of inhibition of proliferation at a lesser dose than CsA,10 fold

# From US8114895B2, “Use of bipyridine compound ‘Caerulomycin A’ derivatives and analogs thereof as immunosuppressive agents” (Council of Science and Industrial Research, priority 2005, dated 2012)
